Test results from patent US20250270209A1 (INTERLINE THERAPEUTICS, INC., priority 2022, published 2025).
pIC50: −log10 of the molar value.

Columns and labels:
[1] = target: T1, wild type LRRK2 overexpressed in recombinant HEK-293T cells (Homo sapiens, UniProt Q5S007); assay: pS935 LRRK2 Cell Assay (HTRF, phospho-LRRK2 Ser935); format: cell-based; settings: LRRK2 Inhibition, Table 8, 2 hours compound incubation
T1 construct: host or cells: HEK293T (transient transfection with pCMV-LRRK2 WT plasmid)
T1 sequence (Q5S007 whole entry): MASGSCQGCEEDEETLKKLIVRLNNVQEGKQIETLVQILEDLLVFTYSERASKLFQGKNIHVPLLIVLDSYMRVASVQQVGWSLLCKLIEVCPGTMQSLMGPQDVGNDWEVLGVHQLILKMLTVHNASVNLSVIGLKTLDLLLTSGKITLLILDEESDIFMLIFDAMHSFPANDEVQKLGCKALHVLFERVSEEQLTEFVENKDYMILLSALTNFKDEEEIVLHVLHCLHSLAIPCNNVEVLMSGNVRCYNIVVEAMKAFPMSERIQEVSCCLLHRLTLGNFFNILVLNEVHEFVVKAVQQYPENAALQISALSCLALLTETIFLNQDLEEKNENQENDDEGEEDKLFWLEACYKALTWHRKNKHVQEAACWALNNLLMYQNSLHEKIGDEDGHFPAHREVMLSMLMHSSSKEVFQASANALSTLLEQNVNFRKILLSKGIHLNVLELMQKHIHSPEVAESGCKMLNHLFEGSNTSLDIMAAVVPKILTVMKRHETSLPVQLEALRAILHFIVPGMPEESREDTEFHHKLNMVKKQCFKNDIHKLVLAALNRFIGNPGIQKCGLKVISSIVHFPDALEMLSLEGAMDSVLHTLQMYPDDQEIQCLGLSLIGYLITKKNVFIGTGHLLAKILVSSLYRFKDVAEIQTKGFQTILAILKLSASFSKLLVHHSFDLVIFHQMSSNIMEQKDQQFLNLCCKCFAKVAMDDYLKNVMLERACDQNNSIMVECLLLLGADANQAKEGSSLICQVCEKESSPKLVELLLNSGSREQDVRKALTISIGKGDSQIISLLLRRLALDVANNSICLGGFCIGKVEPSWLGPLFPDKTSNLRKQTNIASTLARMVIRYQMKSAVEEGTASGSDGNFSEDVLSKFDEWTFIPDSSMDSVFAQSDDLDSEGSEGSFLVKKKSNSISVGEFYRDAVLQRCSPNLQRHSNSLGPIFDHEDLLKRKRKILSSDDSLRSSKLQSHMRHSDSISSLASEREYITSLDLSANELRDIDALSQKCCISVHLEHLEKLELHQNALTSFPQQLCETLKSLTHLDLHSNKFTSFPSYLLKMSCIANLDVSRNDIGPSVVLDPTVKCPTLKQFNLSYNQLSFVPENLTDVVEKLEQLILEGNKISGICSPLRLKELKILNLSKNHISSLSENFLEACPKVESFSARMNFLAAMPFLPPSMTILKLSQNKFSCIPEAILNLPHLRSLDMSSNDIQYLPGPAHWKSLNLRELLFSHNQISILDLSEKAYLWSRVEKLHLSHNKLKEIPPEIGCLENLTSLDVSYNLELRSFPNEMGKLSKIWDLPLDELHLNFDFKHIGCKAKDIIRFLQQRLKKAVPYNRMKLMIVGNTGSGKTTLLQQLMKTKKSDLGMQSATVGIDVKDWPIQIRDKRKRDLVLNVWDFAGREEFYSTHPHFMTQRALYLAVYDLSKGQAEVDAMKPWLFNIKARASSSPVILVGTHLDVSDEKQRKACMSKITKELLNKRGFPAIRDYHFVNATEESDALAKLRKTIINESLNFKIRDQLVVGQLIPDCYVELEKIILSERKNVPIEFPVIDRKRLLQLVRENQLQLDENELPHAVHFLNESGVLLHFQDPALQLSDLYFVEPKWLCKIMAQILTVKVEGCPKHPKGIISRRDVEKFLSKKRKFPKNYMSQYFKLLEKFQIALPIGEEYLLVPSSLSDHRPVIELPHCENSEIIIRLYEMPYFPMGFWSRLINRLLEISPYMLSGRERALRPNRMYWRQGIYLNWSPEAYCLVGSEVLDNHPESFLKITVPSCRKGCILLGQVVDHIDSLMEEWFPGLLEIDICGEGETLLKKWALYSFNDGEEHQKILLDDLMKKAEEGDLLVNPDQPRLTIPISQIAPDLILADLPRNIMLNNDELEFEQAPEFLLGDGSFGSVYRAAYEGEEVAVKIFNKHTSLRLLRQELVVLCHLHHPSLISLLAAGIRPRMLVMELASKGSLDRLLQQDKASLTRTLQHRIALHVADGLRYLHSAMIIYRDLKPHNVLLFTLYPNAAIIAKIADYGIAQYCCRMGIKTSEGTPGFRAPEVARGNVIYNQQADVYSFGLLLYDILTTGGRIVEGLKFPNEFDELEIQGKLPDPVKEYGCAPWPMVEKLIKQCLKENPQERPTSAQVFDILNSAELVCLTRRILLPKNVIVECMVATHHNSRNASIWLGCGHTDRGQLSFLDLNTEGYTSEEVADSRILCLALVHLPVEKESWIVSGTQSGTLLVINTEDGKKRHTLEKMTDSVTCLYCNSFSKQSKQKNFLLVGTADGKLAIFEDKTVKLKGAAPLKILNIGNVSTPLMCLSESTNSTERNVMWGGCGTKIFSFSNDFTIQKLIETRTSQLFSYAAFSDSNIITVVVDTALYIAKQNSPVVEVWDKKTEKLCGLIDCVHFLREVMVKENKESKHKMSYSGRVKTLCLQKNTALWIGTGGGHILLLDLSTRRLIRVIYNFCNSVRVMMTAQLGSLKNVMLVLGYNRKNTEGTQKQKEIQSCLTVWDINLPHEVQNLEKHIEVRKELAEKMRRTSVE
In short: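 Phospho-Ser935 LRRK2 measured by two-antibody HTRF (Eu-cryptate donor, d2 acceptor; 665/615 nm ratio) after overnight detection at 23° C. Before lysis, transiently LRRK2-transfected HEK-293T cells were exposed 2 h at 37° C to a 9-point, 3-fold series from 10 μM, with DMSO at 0.2%.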

LRRK2 wild type enzyme = LRRK2 wild type enzyme (Homo sapiens, UniProt Q5S007); assay: Biochemical Assay: LRRK2 TR-FRET (LanthaScreen) kinase assay with LRRKtide substrate; settings: LRRK2 Inhibition, Table 8
Chain of LRRK2 wild type enzyme (Q5S007 whole entry): as above
In short: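 TR-FRET detection (Tb-labelled phospho-LRRKtide antibody, EDTA stop, 30 min) followed a 120 min, 23 °C reaction of 3 nM wild-type human LRRK2 with LRRKtide (400 nM) and ATP (25 μM) in Tris pH 8.0. Compounds: 11-point 3-fold series from 10 μM, 15 min enzyme preincubation.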

Row | Compound | pIC50 [1] | pIC50 (LRRK2 wild type enzyme)
1 | CC1CC(n2c(CC3CNC3)nc3cnc4ccc(C#N)cc4c32)CCO1 (centres unmarked) [Compound 70, 2-[(azetidin-3-yl)methyl]-1-(2-methyloxan-4-yl)-1H-imidazo[4,5-c]quinoline-8-carbonitrile] | 5.43 | 8.04
2 | COc1ccc2ncc3nc(CC(=O)NC4CC4)n([C@@H]4CCO[C@H](C)C4)c3c2c1 [Compound 160, N-cyclopropyl-2-{8-methoxy-1-[(2R,4R)-2-methyloxan-4-yl]-1H-imidazo[4,5-c]quinolin-2-yl}acetamide] | 6.48 | 8.55
3 | C[C@@H]1C[C@H](n2c(CC(=O)Nc3ncccn3)nc3cnc4ccc(C#N)cc4c32)CCO1 [Compound 178, 2-{8-cyano-1-[(2R,4R)-2-methyloxan-4-yl]-1H-imidazo[4,5-c]quinolin-2-yl}-N-(pyrimidin-2-yl)acetamide] | 8.41 | 9.47
4 | C[C@@H]1C[C@H](n2c(CC(=O)NC3CC3F)nc3cnc4ccc(C#N)cc4c32)CCO1 (stereo in doubt) [Compound 245, N-[(1R,2R)-2-fluorocyclopropyl]{3-[(2R,4R)-2-methyltetrahydro-2H-pyran-4-yl]-12-cyano-3,5,8-triazatricyclo[7.4.0.0^2,6]trideca-1(13),2(6),4,7,9,11-hexaen-4-yl}acetamide] | 7.15 | 9.02
5 | C[C@@H]1C[C@H](n2c(CC(=O)Nc3cncnc3O)nc3cnc4ccc(C#N)cc4c32)CCO1 [Compound 211, N-(4-hydroxy-5-pyrimidinyl){3-[(2R,4R)-2-methyltetrahydro-2H-pyran-4-yl]-12-cyano-3,5,8-triazatricyclo[7.4.0.0^2,6]trideca-1,4,6,8,10,12-hexaen-4-yl}acetamide] | 5.77 | 9.32
6 | N#Cc1ccc2ncc3nc(CC(=O)NCC4CC4)n(C4CCCC4)c3c2c1 [Compound 109, 2-{8-cyano-1-cyclopentyl-1H-imidazo[4,5-c]quinolin-2-yl}-N— (cyclopropylmethyl)acetamide] | 6.76 | 8.74
7 | C[C@@H]1C[C@H](n2c(CC(=O)Nc3cnn(C4CCC4)c3)nc3cnc4ccc(C#N)cc4c32)CCO1 [Compound 305, N-(1-cyclobutyl-4-pyrazolyl){3-[(2R,4R)-2-methyltetrahydro-2H-pyran-4-yl]-12-cyano-3,5,8-triazatricyclo[7.4.0.0^2,6]trideca-1,4,6,8,10,12-hexaen-4-yl}acetamide] | 7.91 | 9.20
8 | C[C@@H]1C[C@H](n2c(C3CC(=O)N([C@H]4CCCOC4)C3)nc3cnc4ccc(C#N)cc4c32)CCO1 (stereo partly drawn) [Compound 52, 1-[(2R,4R)-2-methyloxan-4-yl]-2-{1-[(3S)-oxan-3-yl]-5-oxopyrrolidin-3-yl}-1H-imidazo[4,5-c]quinoline-8-carbonitrile] | 6.40 | 8.54
9 | C[C@@H]1C[C@H](n2c(CC(=O)Nc3cn(C)c(C(F)(F)F)cc3=O)nc3cnc4ccc(C#N)cc4c32)CCO1 [Compound 232, N-[1-methyl-4-oxo-6-(trifluoromethyl)-1,4-dihydro-3-pyridyl]{3-[(2R,4R)-2-methyltetrahydro-2H-pyran-4-yl]-12-cyano-3,5,8-triazatricyclo[7.4.0.0^2,6]trideca-1,4,6,8,10,12-hexaen-4-yl}acetamide] | 7.43 | 9.10
10 | C[C@@H]1C[C@H](n2c(CC(=O)NCc3ccn(C)n3)nc3cnc4ccc(C#N)cc4c32)CCO1 [Compound 157, 2-{8-cyano-1-[(2R,4R)-2-methyloxan-4-yl]-1H-imidazo[4,5-c]quinolin-2-yl}-N-[(1-methyl-1H-pyrazol-3-yl)methyl]acetamide] | 7.59 | 9.30
11 | C[C@@H]1C[C@H](n2c(CC(=O)Nc3cnc(C(F)(F)F)nc3)nc3cnc4ccc(C#N)cc4c32)CCO1 [Compound 321, N-[2-(trifluoromethyl)-5-pyrimidinyl]{3-[(2R,4R)-2-methyltetrahydro-2H-pyran-4-yl]-12-cyano-3,5,8-triazatricyclo[7.4.0.0^2,6]trideca-1(9),2(6),4,7,10,12-hexaen-4-yl}acetamide] | 7.60 | 9.18
12 | COc1nc(C)nc(C)c1NC(=O)Cc1nc2cnc3ccc(C#N)cc3c2n1[C@@H]1CCO[C@H](C)C1 [Compound 203, N-(4-methoxy-2,6-dimethyl-5-pyrimidinyl){3-[(2R,4R)-2-methyltetrahydro-2H-pyran-4-yl]-12-cyano-3,5,8-triazatricyclo[7.4.0.0^2,6]trideca-1,4,6,8,10,12-hexaen-4-yl}acetamide] | 6.87 | 9.47
13 | C[C@@H]1C[C@H](n2c(C3CCN(S(=O)(=O)c4cnn(C)c4)CC3)nc3cnc4ccc(C#N)cc4c32)CCO1 [Compound 121, 2-{1-[(1-methyl-1H-pyrazol-4-yl)sulfonyl]piperidin-4-yl}-1-[(2R,4R)-2-methyloxan-4-yl]-1H-imidazo[4,5-c]quinoline-8-carbonitrile] | 6.31 | 8.74
14 | C[C@@H]1C[C@H](n2c(CC(=O)Nc3cnn(C)c(=O)c3)nc3cnc4ccc(C#N)cc4c32)CCO1 [Compound 264, N-(1-methyl-6-oxo-1,6-dihydro-4-pyridazinyl){3-[(2R,4R)-2-methyltetrahydro-2H-pyran-4-yl]-12-cyano-3,5,8-triazatricyclo[7.4.0.0^2,6]trideca-1,4,6,8,10,12-hexaen-4-yl}acetamide] | 7.13 | 9.31
15 | C[C@@H]1C[C@H](n2c(CC(=O)N[C@@H]3C[C@@H]3F)nc3cnc4ccc(C#N)cc4c32)CCO1 [Compound 290, N-[(1R,2S)-2-fluorocyclopropyl]{3-[(2R,4R)-2-methyltetrahydro-2H-pyran-4-yl]-12-cyano-3,5,8-triazatricyclo[7.4.0.0^2,6]trideca-1,4,6,8,10,12-hexaen-4-yl}acetamide] | 7.48 | 9.25
16 | C[C@@H]1C[C@H](n2c(CN3CCC(C(=O)O)C3)nc3cnc4ccc(C#N)cc4c32)CCO1 (stereo partly drawn) [Compound 77, 1-({8-cyano-1-[(2R,4R)-2-methyloxan-4-yl]-1H-imidazo[4,5-c]quinolin-2-yl}methyl)pyrrolidine-3-carboxylic acid] | 5.29 | 7.47
17 | C[C@@H]1C[C@H](n2c(CC(=O)NC3CCC3)nc3cnc4ccc(C#N)cc4c32)CCO1 [Compound 84, 2-{8-cyano-1-[(2R,4R)-2-methyloxan-4-yl]-1H-imidazo[4,5-c]quinolin-2-yl}-N-cyclobutylacetamide] | 7.58 | 9.36
18 | C[C@@H]1C[C@H](n2c(C3CN(S(=O)(=O)C4CC4)C3)nc3cnc4ccc(C#N)cc4c32)CCO1 [Compound 66, 2-[1-(cyclopropanesulfonyl)azetidin-3-yl]-1-[(2R,4R)-2-methyloxan-4-yl]-1H-imidazo[4,5-c]quinoline-8-carbonitrile] | 6.28 | 8.47
19 | COc1cc(C2CC2)ncc1NC(=O)Cc1nc2cnc3ccc(C#N)cc3c2n1[C@@H]1CCO[C@H](C)C1 [Compound 213, N-(6-cyclopropyl-4-methoxy-3-pyridyl){3-[(2R,4R)-2-methyltetrahydro-2H-pyran-4-yl]-12-cyano-3,5,8-triazatricyclo[7.4.0.0^2,6]trideca-1,4,6,8,10,12-hexaen-4-yl}acetamide] | 8.40 | 9.39
20 | C[C@@H]1C[C@H](n2c(CC(=O)Nc3cncc(C#N)c3)nc3cnc4ccc(C#N)cc4c32)CCO1 [Compound 284, N-(5-cyano-3-pyridyl){3-[(2R,4R)-2-methyltetrahydro-2H-pyran-4-yl]-12-cyano-3,5,8-triazatricyclo[7.4.0.0^2,6]trideca-1,4,6,8,10,12-hexaen-4-yl}acetamide] | 7.70 | 9.27
21 | C[C@@H]1C[C@H](n2c(CC(=O)N[C@@H]3CCOC3)nc3cnc4ccc(Cl)cc4c32)CCO1 [Compound 145, 2-{8-chloro-1-[(2R,4R)-2-methyloxan-4-yl]-1H-imidazo[4,5-c]quinolin-2-yl}-N-[(3R)-oxolan-3-yl]acetamide] | 7.87 | 9.21
22 | Cc1ncc(NC(=O)Cc2nc3cnc4ccc(C#N)cc4c3n2[C@@H]2CCO[C@H](C)C2)c(C)n1 [Compound 261, N-(2,4-dimethyl-5-pyrimidinyl){3-[(2R,4R)-2-methyltetrahydro-2H-pyran-4-yl]-12-cyano-3,5,8-triazatricyclo[7.4.0.0^2,6]trideca-1,4,6,8,10,12-hexaen-4-yl}acetamide] | 7.98 | 9.29
23 | C[C@@H]1C[C@H](n2c(CN3CCCCC3=O)nc3cnc4ccc(C#N)cc4c32)CCO1 [Compound 79, 1-[(2R,4R)-2-methyloxan-4-yl]-2-[(2-oxopiperidin-1-yl)methyl]-1H-imidazo[4,5-c]quinoline-8-carbonitrile] | 6.09 | 7.97
24 | C[C@@H]1C[C@H](n2c(CC(=O)NCC3CC3)nc3cnc4ccc(Cl)cc4c32)CCO1 [Compound 107, 2-{8-chloro-1-[(2R,4R)-2-methyloxan-4-yl]-1H-imidazo[4,5-c]quinolin-2-yl}-N-(cyclopropylmethyl)acetamide] | 7.96 | 9.45
25 | COc1ncc(NC(=O)Cc2nc3cnc4ccc(C#N)cc4c3n2[C@@H]2CCO[C@H](C)C2)c(OC)n1 [Compound 295, N-(2,4-dimethoxy-5-pyrimidinyl){3-[(2R,4R)-2-methyltetrahydro-2H-pyran-4-yl]-12-cyano-3,5,8-triazatricyclo[7.4.0.0^2,6]trideca-1,4,6,8,10,12-hexaen-4-yl}acetamide] | 8.33 | 9.34
